According to patent US6737383B1, “Herbicidal oxadiazolidines” (priority 1999, dated 2004):

Experiments:
[1] = tested on: wheat; test: Test B pre/postemergence wheat; type: in vivo, Triticum aestivum
Method in brief: (§1)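 Test chemicals in a non-phytotoxic solvent mixture with surfactant were sprayed preemergence onto planted seeds and postemergence onto plants 2 to 18 cm tall (1- to 4-leaf stage). After twelve to sixteen days in a greenhouse, injury was visually rated against untreated controls from 0 (no effect) to 10 (complete control).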

[2] = tested on: sugar beet; test: Test B pre/postemergence sugar beet; type: in vivo, Beta vulgaris
Method in brief: as §1

[3] = tested on: surinam grass; test: Test B pre/postemergence surinam grass; type: in vivo, Brachiaria decumbens
Method in brief: as §1

[4] = tested on: giant foxtail; test: Test B pre/postemergence giant foxtail; type: in vivo, Setaria faberii
Method in brief: as §1

[5] = tested on: duck salad; test: Test B flood test duck salad; type: in vivo, Heteranthera limosa
Method in brief: (§2)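 Read-out is a visual response score from 0 (no effect) to 10 (complete control), assigned by comparison with untreated controls. Treatment was applied at the 2-leaf stage, and plants stayed in the greenhouse for twelve to sixteen days before scoring.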

[6] = tested on: rape; test: Test B pre/postemergence rape; type: in vivo, Brassica napus
Method in brief: as §1

[7] = tested on: soybean; test: Test B pre/postemergence soybean; type: in vivo, Glycine max
Method in brief: as §1

[8] = tested on: bamyardgrass; test: Test B flood test barnyardgrass; type: in vivo, Echinochloa crus-galli
Method in brief: as §2

[9] = tested on: cocklebur; test: Test B pre/postemergence cocklebur; type: in vivo, Xanthium strumarium
Method in brief: as §1

[10] = tested on: pigweed; test: Test B pre/postemergence pigweed; type: in vivo, Amaranthus retroflexus
Method in brief: as §1

[11] = tested on: rice; test: Test B flood test rice; type: in vivo, Oryza sativa
Method in brief: as §2

[12] = tested on: blackgrass; test: Test B pre/postemergence blackgrass; type: in vivo, Alopecurus myosuroides
Method in brief: as §1

[13] = tested on: corn; test: Test B pre/postemergence corn; type: in vivo, Zea mays
Method in brief: as §1

[14] = tested on: purple nutsedge; test: Test B pre/postemergence purple nutsedge; type: in vivo, Cyperus rotundus
Method in brief: as §1

[15] = tested on: smallflower flatsedge; test: Test B flood test smallflower flatsedge; type: in vivo, Cyperus difformis
Method in brief: as §2

[16] = tested on: crabgrass; test: Test B pre/postemergence crabgrass; type: in vivo, Digitaria sanguinalis
Method in brief: as §1

[17] = Preemergence, Rate 62 g/ha, scale of 0 to 10 where 0 is no effect and 10 is complete control
[18] = Preemergence, Rate 250 g/ha, scale of 0 to 10 where 0 is no effect and 10 is complete control
[19] = Preemergence, Rate 500 g/ha, scale of 0 to 10 where 0 is no effect and 10 is complete control
[20] = Rate 62 g/ha, Postemergence, scale of 0 to 10 where 0 is no effect and 10 is complete control
[21] = Rate 125 g/ha, Postemergence, scale 0 to 10
[22] = Rate 125 g/ha, Preemergence, scale of 0 to 10 where 0 is no effect and 10 is complete control
[23] = Rate 500 g/ha, Postemergence, scale 0 to 10, 0 no effect, 10 complete control
[24] = Rate 62 g/ha, headed Pre-emergence (flood test species), scale 0 to 10 (0 no effect, 10 complete control)
[25] = Rate 125 g/ha, Pre-emergence, flood test species, scale 0 to 10 where 0 is no effect and 10 is complete control
[26] = Rate 250 g/ha, Pre-emergence, flood-test species, scale 0 to 10, 0 is no effect, 10 is complete control
[27] = Rate 500 g/ha, Pre-emergence, flood test species, scale 0 to 10 (0 no effect, 10 complete control)

CON=C(Cn1c(=O)on(C(=O)N(c2ccc(F)cc2)C(C)C)c1=O)C(F)(F)F [Compound 227]
3: Plant response rating (0 to 10; 0 is no effect, 10 is complete control), Wheat ([1]; Rate 250 g/ha, Postemergence) | Sugarbeets plant response rating [2, 22] | Plant response rating (0 to 10; 0 is no effect, 10 is complete control), Sugarbeets ([2]; Rate 250 g/ha, Postemergence) | Soybean plant response rating [7, 21] | Cocklebur plant response rating [9, 23] | Redroot pigweed plant response rating [10, 17] | Crabgrass plant response rating [16, 23]
7: Redroot pigweed plant response rating [10, 23] | Plant response rating (0 to 10; 0 is no effect, 10 is complete control), Blackgrass ([12]; Rate 250 g/ha, Postemergence) | Blackgrass plant response rating [12, 23]
6: Sugarbeets plant response rating [2, 18]
10: Giant foxtail plant response rating [4, 18] | Plant response rating, Giant foxtail [4, 19] | Giant foxtail plant response rating [4, 22] | Plant response rating, Rape [6, 19] | Redroot pigweed plant response rating [10, 18] | Plant response rating, Redroot pigweed [10, 19] | Blackgrass plant response rating [12, 18] | Plant response rating, Blackgrass [12, 19] | Crabgrass plant response rating [16, 18] | Plant response rating, Crabgrass [16, 19] | Crabgrass plant response rating [16, 22]
1: Soybean plant response rating [7, 20] | Crabgrass plant response rating [16, 17]
5: Wheat plant response rating [1, 23] | Sugarbeets plant response rating [2, 23] | Soybean plant response rating [7, 23] | Redroot pigweed plant response rating [10, 22] | Plant response rating (0 to 10; 0 is no effect, 10 is complete control), Redroot pigweed ([10]; Rate 250 g/ha, Postemergence) | Blackgrass plant response rating [12, 22]
9: Giant foxtail plant response rating [4, 17]
8: Plant response rating, Sugarbeets [2, 19] | Rape plant response rating [6, 18]
2: Sugarbeets plant response rating [2, 17] | Plant response rating, B. signalgrass [3, 19] | Plant response rating, Soybean [7, 19] | Plant response rating (0 to 10; 0 is no effect, 10 is complete control), Cocklebur ([9]; Rate 250 g/ha, Postemergence) | Redroot pigweed plant response rating [10, 21] | Blackgrass plant response rating [12, 17] | Blackgrass plant response rating [12, 21]
0: Wheat plant response rating [1, 17] | Wheat plant response rating [1, 18] | Plant response rating, Wheat [1, 19] | Wheat plant response rating [1, 20] | Wheat plant response rating [1, 21] | Wheat plant response rating [1, 22] | Sugarbeets plant response rating [2, 20] | Sugarbeets plant response rating [2, 21] | B. signalgrass plant response rating [3, 17] | B. signalgrass plant response rating ([3]; Preemergence, Rate 250 g/ha, scale 0 to 10, 0 is no effect, 10 is complete control) | B. signalgrass plant response rating [3, 20] | B. signalgrass plant response rating ([3]; Rate 125 g/ha, Postemergence, scale 0 (no effect) to 10 (complete control)) | B. signalgrass plant response rating [3, 22] | Plant response rating (0 to 10; 0 is no effect, 10 is complete control), B. signalgrass ([3]; Rate 250 g/ha, Postemergence) | B. signalgrass plant response rating [3, 23] | Giant foxtail plant response rating [4, 20] | Giant foxtail plant response rating [4, 21] | Plant response rating (0 to 10; 0 is no effect, 10 is complete control), Giant foxtail ([4]; Rate 250 g/ha, Postemergence) | Giant foxtail plant response rating [4, 23] | Ducksalad plant response rating [5, 24] | Ducksalad plant response rating [5, 25] | Ducksalad plant response rating [5, 26] | Ducksalad plant response rating [5, 27] | Rape plant response rating [6, 17] | Rape plant response rating [6, 20] | Rape plant response rating [6, 21] | Plant response rating (0 to 10; 0 is no effect, 10 is complete control), Rape ([6]; Rate 250 g/ha, Postemergence) | Rape plant response rating [6, 23] | Soybean plant response rating [7, 17] | Soybean plant response rating [7, 18] | Soybean plant response rating [7, 22] | Barnyardgrass plant response rating [8, 24] | Barnyardgrass plant response rating [8, 25] | Barnyardgrass plant response rating [8, 26] | Barnyardgrass plant response rating [8, 27] | Cocklebur plant response rating [9, 17] | Cocklebur plant response rating [9, 18] | Plant response rating, Cocklebur [9, 19] | Cocklebur plant response rating [9, 20] | Cocklebur plant response rating [9, 21] | Cocklebur plant response rating [9, 22] | Redroot pigweed plant response rating [10, 20] | Rice plant response rating [11, 24] | Rice plant response rating [11, 25] | Rice plant response rating [11, 26] | Rice plant response rating [11, 27] | Blackgrass plant response rating [12, 20] | Corn plant response rating [13, 17] | Corn plant response rating [13, 18] | Plant response rating, Corn [13, 19] | Corn plant response rating [13, 20] | Corn plant response rating [13, 21] | Corn plant response rating [13, 22] | Plant response rating (0 to 10; 0 is no effect, 10 is complete control), Corn ([13]; Rate 250 g/ha, Postemergence) | Corn plant response rating [13, 23] | Nutsedge plant response rating [14, 17] | Nutsedge plant response rating [14, 18] | Nutsedge plant response rating [14, 20] | Nutsedge plant response rating [14, 21] | Nutsedge plant response rating [14, 22] | Plant response rating (0 to 10; 0 is no effect, 10 is complete control), Nutsedge ([14]; Rate 250 g/ha, Postemergence) | Nutsedge plant response rating [14, 23] | S. Flatsedge plant response rating [15, 24] | S. Flatsedge plant response rating [15, 25] | S. Flatsedge plant response rating [15, 26] | S. Flatsedge plant response rating [15, 27] | Crabgrass plant response rating [16, 20] | Crabgrass plant response rating [16, 21] | Plant response rating (0 to 10; 0 is no effect, 10 is complete control), Crabgrass ([16]; Rate 250 g/ha, Postemergence)
4: Rape plant response rating [6, 22] | Plant response rating (0 to 10; 0 is no effect, 10 is complete control), Soybean ([7]; Rate 250 g/ha, Postemergence)
